Source: PubChem BioAssay (NCI)
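Method: 48-hour compound exposure of cells in 96-well plates, five concentrations, linear interpolation of endpoints. Here, GI50 denotes the concentration required for 50% inhibition of growth. TGI is the concentration that stops growth completely.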

Key:
Test in all cases: NCI tumour cell line growth inhibition, 48 h
[1] = test system: HOP-92 NSCLC
[2] = test system: CAKI-1 renal
[3] = test system: SK-MEL-2 melanoma
[4] = test system: HCT-116 colon
[5] = test system: SNB-19 CNS
[6] = test system: ACHN renal
[7] = test system: SW-620 colon
[8] = test system: SF-268 CNS
[9] = test system: A549 NSCLC
[10] = test system: KM12 colon
[11] = test system: HOP-62 NSCLC
[12] = test system: SN12C renal
[13] = test system: SF-295 CNS
[14] = test system: OVCAR-3 ovarian
[15] = test system: SK-OV-3 ovarian
[16] = test system: MALME-3M melanoma
[17] = test system: BT-549 breast
[18] = test system: HCT-15 colon
[19] = test system: HS 578T breast
[20] = test system: RXF 393 renal
[21] = test system: PC-3 prostate
[22] = test system: 786-0 renal
[23] = test system: SF-539 CNS
[24] = test system: NCI/ADR-RES ovarian
[25] = test system: DU-145 prostate
[26] = test system: U251 CNS
[27] = test system: NCI-H522 lung
[28] = test system: M14 melanoma
[29] = test system: SK-MEL-5 melanoma
[30] = test system: SNB-75 CNS
[31] = test system: OVCAR-4 ovarian
[32] = test system: HL-60(TB) leukemia
[33] = test system: TK-10 renal
[34] = test system: UO-31 renal
[35] = test system: IGROV1 ovarian
[36] = test system: MCF7 breast
[37] = test system: HT29 colon
[38] = test system: NCI-H226 lung
[39] = test system: OVCAR-5 ovarian
[40] = test system: LOX IMVI melanoma
[41] = test system: UACC-257 melanoma
[42] = test system: T-47D breast
[43] = test system: HCC-2998 colon
[44] = test system: MDA-MB-435
[45] = test system: COLO 205 colon
[46] = test system: A498 renal
[47] = test system: EKVX NSCLC
[48] = test system: NCI-H23 lung
[49] = test system: OVCAR-8 ovarian
[50] = test system: SK-MEL-28 melanoma

SMILES: COc1ccc(Nc2nccc(Nc3ccc4[nH]ncc4c3)n2)cc1
- GI50 [1]: 3.13 µM
- TGI [1]: 12.9 µM
- GI50 [2]: 2.22 µM
- TGI [2]: 14.9 µM
- GI50 [3]: 2.4 µM
- TGI [3]: 6.39 µM
- GI50 [4]: 2.06 µM
- TGI [4]: 4.91 µM
- GI50 [5]: 4.3 µM
- TGI [5]: 87 µM
- GI50 [6]: 2.89 µM
- TGI [6]: 11.7 µM
- GI50 [7]: 3.31 µM
- TGI [7]: > 100 µM
- GI50 [8]: 4.2 µM
- TGI [8]: 28.6 µM
- GI50 [9]: 3.46 µM
- TGI [9]: 14.3 µM
- GI50 [10]: 3.45 µM
- TGI [10]: 24.2 µM
- GI50 [11]: 2.27 µM
- TGI [11]: 5.75 µM
- GI50 [12]: 3.92 µM
- TGI [12]: > 100 µM
- GI50 [13]: 3.78 µM
- TGI [13]: 13.8 µM
- GI50 [14]: 3.15 µM
- TGI [14]: 10.6 µM
- GI50 [15]: 7.04 µM
- TGI [15]: 21.7 µM
- GI50 [16]: 3.27 µM
- TGI [16]: 15.9 µM
- GI50 [17]: 3.22 µM
- TGI [17]: 12.1 µM
- GI50 [18]: 1.9 µM
- TGI [18]: 4.28 µM
- GI50 [19]: 5.02 µM
- TGI [19]: > 100 µM
- GI50 [20]: 1.98 µM
- TGI [20]: 6.45 µM
- GI50 [21]: 2.21 µM
- TGI [21]: 7.2 µM
- GI50 [22]: 1.74 µM
- TGI [22]: 4.75 µM
- GI50 [23]: 4.38 µM
- TGI [23]: 16.8 µM
- GI50 [24]: 2.18 µM
- TGI [24]: 5.75 µM
- GI50 [25]: 3.31 µM
- TGI [25]: 12.9 µM
- GI50 [26]: 3.61 µM
- TGI [26]: 13.6 µM
- GI50 [27]: 1.86 µM
- TGI [27]: 4.77 µM
- GI50 [28]: 2.39 µM
- TGI [28]: 6.15 µM
- GI50 [29]: 2.01 µM
- TGI [29]: 4.75 µM
- GI50 [30]: 4.58 µM
- TGI [30]: 20.3 µM
- GI50 [31]: 2.99 µM
- TGI [31]: 11.8 µM
- GI50 [32]: 2.05 µM
- TGI [32]: 4.67 µM
- GI50 [33]: 2.45 µM
- TGI [33]: 9.55 µM
- GI50 [34]: 2.12 µM
- TGI [34]: 11.4 µM
- GI50 [35]: 3.36 µM
- TGI [35]: 25.1 µM
- GI50 [36]: 2.05 µM
- TGI [36]: 5.36 µM
- GI50 [37]: 2.36 µM
- TGI [37]: 8.33 µM
- GI50 [38]: 2.3 µM
- TGI [38]: 5.77 µM
- GI50 [39]: 3.33 µM
- TGI [39]: > 100 µM
- GI50 [40]: 1.92 µM
- TGI [40]: 3.87 µM
- GI50 [41]: 5.41 µM
- TGI [41]: 16.9 µM
- GI50 [42]: 1.77 µM
- TGI [42]: 5.42 µM
- GI50 [43]: 2.88 µM
- TGI [43]: 8.05 µM
- GI50 [44]: 2.1 µM
- TGI [44]: 5.7 µM
- GI50 [45]: 2.59 µM
- TGI [45]: 7.21 µM
- GI50 [46]: 4.62 µM
- TGI [46]: 17.2 µM
- GI50 [47]: 5 µM
- TGI [47]: 17.9 µM
- GI50 [48]: 2.35 µM
- TGI [48]: 6.27 µM
- GI50 [49]: 2.24 µM
- TGI [49]: 5.39 µM
- GI50 [50]: 3.64 µM
- TGI [50]: 16.5 µM
